From the NIST ThermoML archive (doi:10.1016/j.jct.2007.02.009) come the findings set out here.

This series in a line: Molar enthalpy of transition or fusion. The note with it: Crystal; Adiabatic calorimetry.

Numbers after ± are expanded uncertainties.

For `CN(C)C=O` [dimethylformamide], the “Molar enthalpy of transition or fusion” value was 2.14 ± 0.0311 kcal/mol.
